Assays:
[1] = human absorption data, from Ertl et al.; cited from earlier work
human NHE3 [2] = target: T1, human NHE3 (Homo sapiens, UniProt P48764); test: Cell-based assay of NHE-3 activity (persistent inhibition), human; conditions: PS120 fibroblasts stably expressing human NHE3, 60 min incubation then washout
T1 sequence (P48764 26-834): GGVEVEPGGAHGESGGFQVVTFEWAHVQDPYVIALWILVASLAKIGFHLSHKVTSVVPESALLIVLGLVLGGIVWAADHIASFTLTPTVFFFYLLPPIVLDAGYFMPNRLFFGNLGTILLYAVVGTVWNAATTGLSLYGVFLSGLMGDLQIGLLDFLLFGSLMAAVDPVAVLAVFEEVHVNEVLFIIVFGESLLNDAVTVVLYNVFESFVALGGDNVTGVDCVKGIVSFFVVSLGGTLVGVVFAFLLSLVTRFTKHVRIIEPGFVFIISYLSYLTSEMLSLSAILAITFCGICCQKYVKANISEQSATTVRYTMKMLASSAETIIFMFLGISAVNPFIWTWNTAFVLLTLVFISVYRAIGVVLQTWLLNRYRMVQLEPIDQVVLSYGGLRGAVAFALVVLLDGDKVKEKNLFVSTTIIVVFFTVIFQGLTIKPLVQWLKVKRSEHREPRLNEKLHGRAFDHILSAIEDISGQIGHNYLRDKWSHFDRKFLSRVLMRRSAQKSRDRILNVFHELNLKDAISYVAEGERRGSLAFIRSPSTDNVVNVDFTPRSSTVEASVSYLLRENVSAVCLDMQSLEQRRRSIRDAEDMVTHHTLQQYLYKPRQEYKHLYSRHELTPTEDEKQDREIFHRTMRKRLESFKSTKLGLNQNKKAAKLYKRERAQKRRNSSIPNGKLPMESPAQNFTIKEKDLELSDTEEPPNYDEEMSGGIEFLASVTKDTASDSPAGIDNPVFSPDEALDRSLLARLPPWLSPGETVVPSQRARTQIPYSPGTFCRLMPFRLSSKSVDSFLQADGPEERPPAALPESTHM
Description: The ability of compounds to inhibit human and rat NHE-3-mediated Na^+-dependent H^+ antiport after application and washout was measured using a modification of the pH sensitive dye method described above. PS120 fibroblasts stably expressing human NHE3 were obtained from Mark Donowitz (Baltimore, Md.). Opossum kidney (OK) cells were obtained from the ATCC and propagated per their instructions. The rat NHE-3 gene was introduced into OK cells via electroporation, and cells were seeded into 96 well plates and grown overnight. Medium was aspirated from the wells, cells were washed once with NaCl-HEPES buffer (100 mM NaCl, 50 mM HEPES, 10 mM glucose, 5 mM KCl, 2 mM CaCl2, 1 mM MgCl2, pH 7.4), then overlayed with NaCl-HEPES buffer containing 0-30 μM test compound. After a 60 min incubation at room temperature, the test drug containing buffer was aspirated from the cells. Following aspiration, cells were washed once with NaCl-HEPES buffer without drug, then incubated for 30 min at 37° C. with NH4Cl-HEPES buffer (20 mM NH4Cl, 80 mM NaCl, 50 mM HEPES, 5 mM KCl, 2 mM CaCl2, 1 mM MgCl2, pH 7.4) containing 5 μM BCECF-AM. Cells were washed once with Ammonium free, Na^+-free HEPES (100 mM choline, 50 mM HEPES, 10 mM glucose, 5 mM KCl, 2 mM CaCl2, 1 mM MgCl2, pH 7.4) and incubated in the same buffer for 10 minutes at room temperature to lower intracellular pH. NHE-3-mediated recovery of neutral intracellular pH was initiated (10 min after compound washout) by addition of Na-HEPES buffer. […] Changes in intracellular pH were monitored using a FLIPR Tetra® (Molecular Devices, Sunnyvale, Calif.) by excitation at λex 439 to 505 nm, and measuring BCECF fluorescence at λem 538 nm. The initial rate of the fluorescence ratio change was used as a measure of NHE-mediated Na^+/H^+ activity, and reported as the change in fluorescence ratio per minute. Initial rates were plotted as the average 2 or more replicates, and pIC50 values were estimated using GraphPad Prism.

human NHE3 [3] = target: T1, human NHE3; test: Cell-based assay of NHE-3 activity (pre-incubation inhibition), human
Description: Rat and human NHE-3-mediated Na^+-dependent H^+ antiport was measured using a modification of the pH sensitive dye method originally reported by Paradiso (Proc. Natl. Acad. Sci. USA. (1984) 81(23): 7436-7440, which is hereby incorporated by reference in its entirety). PS120 fibroblasts stably expressing human NHE3 were obtained from Mark Donowitz (Baltimore, Md.). Opossum kidney (OK) cells were obtained from the ATCC and propagated per their instructions. The rat NHE-3 gene (GenBank M85300) was introduced into OK cells via electroporation, and cells were seeded into 96 well plates and grown overnight. Medium was aspirated from the wells then incubated for 30 min at 37° C. with NH4Cl-HEPES buffer (20 mM NH4Cl, 80 mM NaCl, 50 mM HEPES, 5 mM KCl, 2 mM CaCl2, 1 mM MgCl2, pH 7.4) containing 5 μM BCECF-AM. Cells were washed once with Ammonium free, Nat-free HEPES (100 mM choline, 50 mM HEPES, 10 mM glucose, 5 mM KCl, 2 mM CaCl2, 1 mM MgCl2, pH 7.4) and incubated in the same buffer for 10 minutes at room temperature to lower intracellular pH with 0-30 μM test compound. […] Changes in intracellular pH were monitored using a FLIPR Tetra® (Molecular Devices, Sunnyvale, Calif.) by excitation at λex 439 to 505 nm, and measuring BCECF fluorescence at λem 538 nm. The initial rate of the fluorescence ratio change was used as a measure of NHE-mediated Na^+/H^+ activity, and reported as the change in fluorescence ratio per minute. Initial rates were plotted as the average 2 or more replicates, and pIC50 values were estimated using GraphPad Prism.

human NHE3 [4] = target: T1, human NHE3; test: Cell-based assay of NHE-3 activity (human NHE3 inhibition assay); design: expressed in transfected cells; host or cells: Opossum kidney (OK) cells (ATCC), electroporated; conditions: OK cells with human NHE-3 gene, BCECF pH recovery, 0-30 μM test compound; read-out: Human NHE3 pIC50 (converted)
Description: Rat or human NHE-3-mediated Na^+-dependent H^+ antiport was measured using a modification of the pH sensitive dye method originally reported by Paradiso (Proc. Natl. Acad. Sci. USA. (1984) 81(23): 7436-7440). Opossum kidney (OK) cells were obtained from the ATCC and propagated per their instructions. The rat NHE-3 gene (GenBank M85300) or the human NHE-3 gene (GenBank NM_004174.1) was introduced into OK cells via electroporation, and cells were seeded into 96 well plates and grown overnight. Medium was aspirated from the wells, cells were washed twice with NaCl-HEPES buffer (100 mM NaCl, 50 mM HEPES, 10 mM glucose, 5 mM KCl, 2 mM CaCl2, 1 mM MgCl2, pH 7.4), then incubated for 30 min at room temperature with NH4Cl-HEPES buffer (20 mM NH4Cl, 80 mM NaCl, 50 mM HEPES, 5 mM KCl, 2 mM CaCl2, 1 mM MgCl2, pH 7.4) containing 5 μM bis(acetoxymethyl) 3,3′-(3′,6′-bis(acetoxymethoxy)-5-((acetoxymethoxy)carbonyl)-3-oxo-3H-spiro[isobenzofuran-1,9′-xanthene]-2′,7′-diyl)dipropanoate (BCECF-AM). Cells were washed twice with Ammonium free, Na^+-free HEPES (100 mM choline, 50 mM HEPES, 10 mM glucose, 5 mM KCl, 2 mM CaCl2, 1 mM MgCl2, pH 7.4) and incubated in the same buffer for 10 minutes at room temperature to lower intracellular pH. […] Initial rates were plotted as the average 2 or more replicates, and pIC50 values were estimated using GraphPad Prism.

[5] = system: gastrointestinal motility; test: Gastrointestinal transit (Evans Blue dye) in opioid induced constipation model; type: in vivo, mice; conditions: oral vehicle, loperamide 3 mg/kg subcutaneous, 30-minute period; vehicle/vehicle approximately 70%
Description: Gastrointestinal transit is measured in mice treated with the peripherally acting μ-opioid agonist loperamide to assess the ability of selected example compounds to restore gastrointestinal motility in a model of opioid induced constipation. Approximately eight-week old, female, CD1 […] are purchased from Envigo (Livermore, Calif.), are housed 4 per cage and acclimated for at least 48 hours before study initiation. Animals are fed standard laboratory rodent chow Harlan Teklad Global 2018 (Maddison, Wis.). […] 30 minutes later, animals are euthanized by carbon dioxide inhalation, and the length from the pylorus to cecum (whole length of the small intestine) and the length from the pylorus to the Evans Blue dye front are measured and recorded. For an individual animal, the length travelled by the Evans Blue dye front is divided by the length of the whole small intestine, measured from the pylorus to the cecum, and multiplied by 100, to provide the distance of the small intestine travelled by the dye as a percentage. […] The effect of example compounds on GIT motility in the presence of loperamide is calculated as the ability to restore vehicle/vehicle transit distance from the vehicle/loperamide transit, expressed as a percentage.

| SMILES | % FA [1] [%] | further results |
| --- | --- | --- |
| CCN1CCCC1CNC(=O)c1cc(S(N)(=O)=O)ccc1OC (stereo not shown) [sulpiride] | 36 | – |
| O=C(O)c1cc(/N=N/c2ccc(S(=O)(=O)Nc3ccccn3)cc2)ccc1O [sulfasalazine] | 12 | – |
| CC(=O)Nc1ccc(OCC(O)CNC(C)C)cc1 (stereo not shown) [practolol] | 95 | – |
| O=C(O)c1cc(/N=N/c2ccc(O)c(C(=O)O)c2)ccc1O [olsalazine] | 2.3 | – |
| Cc1ccccc1N1C(=O)c2cc(S(N)(=O)=O)c(Cl)cc2NC1C (stereo not shown) [metolazone] | 64 | – |
| CC(C)NCC(O)COc1cccc2[nH]ccc12 (stereo not shown) [pindolol] | 92 | – |
| NC[C@H]1CC[C@H](C(=O)O)CC1 [tranexamic acid] | 55 | – |
| N[C@@H]1CCCN([C@H]2Cc3c(F)cc(Cl)cc3[C@@H]2Oc2ccc(S(=O)(=O)NCCOCCOCCNC(=O)NCCCCNC(=O)NCCOCCOCCNS(=O)(=O)c3ccc(O[C@H]4c5cc(Cl)cc(F)c5C[C@@H]4N4CCC[C@@H](N)C4)cc3)cc2)C1 [Example 29] | – | % inhibition (human Persistence assay) (human NHE3 [2]): B (40-70%); IC50 (human NHE3 [2]; read-out: pIC50 (human Persistence assay) (converted)): > 1000 nM; IC50 (human NHE3 [3]; PS120 fibroblasts stably expressing human NHE3, 10 min pre-incubation with 0-30 μM test compound, read-out: pIC50 (human Preincubation assay) (converted)): < 100 nM; % inhibition (human Preincubation assay) (human NHE3 [3]; PS120 fibroblasts stably expressing human NHE3, pre-incubation with test compound): C (>70%); IC50 (human NHE3 [4]): < 100 nM |
| CN(C)C(=O)C(CCN1CCC(O)(c2ccc(Cl)cc2)CC1)(c1ccccc1)c1ccccc1 [loperamide] | – | distance of the small intestine travelled by the Evans Blue dye front [5]: ~25% |
| OC[C@H]1O[C@@H](O[C@@H]2[C@@H](CO)OC(O)(CO)[C@H]2O)[C@H](O)[C@@H](O)[C@H]1O (mixture of isomers) [lactulose] | 0.6 | – |
| OC[C@H]1O[C@H](OC[C@H]2O[C@H](O[C@]3(CO)O[C@H](CO)[C@@H](O)[C@@H]3O)[C@H](O)[C@@H](O)[C@@H]2O)[C@H](O)[C@@H](O)[C@H]1O [raffinose] | 0.3 | – |
| C=CCc1ccccc1OCC(O)CNC(C)C (stereo not shown) [alprenolol] | 96 | – |
| OC[C@@H](O)[C@@H](O)[C@H](O)[C@H](O)CO [mannitol] | 26 | – |
| C=CCOc1ccccc1OCC(O)CNC(C)C (stereo not shown) [oxprenolol] | 97 | – |
| O=C(O)P(=O)(O)O [foscarnet] | 17 | – |

— patent US10376481B2, “Compounds and methods for inhibiting NHE-mediated antiport in the treatment of disorders associated with fluid retention or salt overload and gastrointestinal tract disorders” (ARDELYX, INC, priority 2012, dated 2019)
